Data on 2 compounds can be found in patent US6407138B1, “Composition and method for preparing electrically neutral amino acid chelates free of interfering ions” (Albion International, Inc., priority 2000, dated 2002).

Data set [1] in a line: Rubbing between thumb and finger (hygroscopicity). The format is physicochemical. Particulars: rubbed between thumb and finger; moisture from thumb, finger and surrounding air. The text has this:
Sample 1 was further compared to Sample 2 by rubbing a portion of each between the thumb and finger.

Data set [2] is described as follows: Shaking in a plastic bag (electrostatic behaviour of the powder). The format is physicochemical. Particulars: shaken in a plastic bag. Here is the method: A 10:1 mixture of copper bisglycinate to terra alba (CaSO4) [Sample 1] was prepared and shaken together in a plastic bag. Next, a pure copper bisglycinate without the presence of terra alba [Sample 2] was also prepared and shaken in a plastic bag.

A short description of data set [3]: Addition to stimulated gastric solution (stability in acid solution, colour change). The class given is physicochemical. The note with it: added to stimulated gastric solution. Here is the method: Finally, Sample 2 was added to a stimulated gastric solution which caused the product to change color. Sample 1 was similarly added to a stimulated gastric solution.

The nature of another data set: Particle size. The format is physicochemical. The source says: The particle size found in Sample 1 and Sample 2 was about 70 mesh.
For data set [4] the following is noted: zero ionic strength; reaction M^2+ + (Gly)^- <-> M(Gly)^+; cited from earlier work.

On to `NCC(=O)[O-].NCC(=O)[O-].[Cu+2]` [Sample 2, copper bisglycinate], for which, in data set [1], the “hygroscopicity: balling up with moisture” value was “quickly balled up”. Also, in data set [2], the “electrostatic behaviour: product sticking to the walls of the bag” value is listed as “a blue hazei of product stuck the walls of the bag”. The “color change in stimulated gastric solution (stability in acid solution)” value in data set [3] was “change color”. The particle size result in the data set “Particle size” was “about 70 mesh”.

As for copper, the “log of the equilibrium constant” value in data set [4] is 8.56.
